Patent US8017364B2, “Solvent tolerant microorganisms” (Butamax(TM) Advanced Biofuels LLC, priority 2006, dated 2011)

How the values were obtained:
[1] = test system: identified tolerant strains; assay: Expected growth on solid medium, inferred from IC50 values and correlation with 1-butanol tolerance; type: cell-based, Pediococcus
PN1011 = conditions: liquid medium, 37° C.
Method: (§1) The growth data was used to calculate the percent growth inhibition caused by 1-butanol by subtracting the percent growth ([…]; where T0OD600 is the initial optical density at the starting time and T5OD600 is the optical density after 5 h) from 100%.

PN1042 = conditions: liquid medium, 37° C.
Method: as §1

[2] = test system: most microorganisms described in the art; conditions: liquid medium, 37° C.; cited from earlier work
[3] = test system: Lactococcus lactis overexpressing GroESL; conditions: GroESL overexpression; equals 0.4% weight/volume (w/v); cited from earlier work
[4] = test system: Lactobacillus paracasei overexpressing GroESL; conditions: GroESL overexpression; equals 0.4% weight/volume (w/v); cited from earlier work

Structure (SMILES): CCC(C)O (stereo not shown) [2-butanol]
- concentration in solid medium on which strains are expected to grow [1]: 4.0 % w/v

Structure (SMILES): CCCCO [1-butanol]
- growth in the presence of 1-butanol (PN1011; PN1011, 3% (w/v) 1-butanol): low levels of growth
- percent growth inhibition (PN1011; PN1011, 3.5% (w/v) 1-butanol, OD600 over 5 h): 100%
- growth in the presence of 1-butanol (PN1042; PN1042, 3% (w/v) 1-butanol): low levels of growth
- percent growth inhibition (PN1042; PN1042, 3.5% (w/v) 1-butanol, OD600 over 5 h): 100%
- concentration at which growth is totally inhibited [2]: less than 2.0 % w/v
- concentration at which strain was able to grow [3]: 0.5 % volume/volume (v/v)
- concentration at which strain was able to grow [4]: 0.5 % volume/volume (v/v)

Structure (SMILES): CC(C)CO [isobutanol]
- concentration in solid medium on which strains are expected to grow [1]: 3.5 % w/v

Structure (SMILES): CCC(C)=O [2-butanone]
- concentration in solid medium on which strains are expected to grow [1]: 6.0 % w/v
